Assay results: PMC8187357 (Communications Biology, 2021)
Several values for one entry are separate records, joined by “and”; a condition that tells them apart may be missing. Equal values may be shown once. Entries after “also recorded” stand apart in the source; their conditions may differ.

Tests used:
PD-L2 = target: T1, PD-L2 (Homo sapiens, UniProt Q9BQ51); assay: Rescue of proliferation inhibited by PD-L2, human PBMC; format: cell-based; conditions: mean ± S.D.; n=3
T1 construct: purchased R&D systems 1224-PL-100
T1 sequence (Q9BQ51 with tags, fused parts or gaps limits assumed): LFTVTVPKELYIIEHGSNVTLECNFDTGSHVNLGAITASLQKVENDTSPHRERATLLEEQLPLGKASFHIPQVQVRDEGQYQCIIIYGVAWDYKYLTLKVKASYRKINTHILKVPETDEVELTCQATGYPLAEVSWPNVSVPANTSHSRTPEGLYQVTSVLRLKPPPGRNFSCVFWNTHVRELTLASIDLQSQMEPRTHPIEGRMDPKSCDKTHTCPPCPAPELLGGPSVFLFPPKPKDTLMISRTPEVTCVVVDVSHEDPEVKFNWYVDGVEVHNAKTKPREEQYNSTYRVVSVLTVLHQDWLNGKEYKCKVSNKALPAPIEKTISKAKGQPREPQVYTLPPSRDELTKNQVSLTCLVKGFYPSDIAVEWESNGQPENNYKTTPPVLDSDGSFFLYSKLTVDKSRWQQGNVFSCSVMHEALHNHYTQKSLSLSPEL
Description: The ability of peptides, peptidomimetics, and small molecules were analyzed for their ability to rescue T-cell proliferation or IFN-γ release from the inhibitory activity of PD-L1 or PD-L2 in a splenocyte/PBMC-based functional assay as per the protocols reported in publication. […] For all in vitro assays, test agent stock was prepared in water and diluted further in the assay media to achieve test concentrations. Each experimental condition was carried out in triplicates. Percent rescue for a given test compound concentration was calculated by normalizing individual percent test agent proliferation or IFN-γ release values to percent anti-CD3 and anti-CD28 antibodies stimulated proliferation or IFN-γ release. EC50 values were derived by plotting transformed data into non-linear fit in sigmoidal dose–response curve using GraphPad Prism software (Version 7).

CTLA4 = target: T2, CTLA4 (Homo sapiens, UniProt P16410); assay: CTLA4-B7.1 functional assay (IL-2, Jurkat T cells); format: cell-based; conditions: for IL2: Jurkat + B7.1 + PHA + CTLA-4 200 ng/mL, replicates
T2 construct: Fc (Ig); purchased R & D systems 325-CT
T2 sequence (P16410 with tags, fused parts or gaps limits assumed): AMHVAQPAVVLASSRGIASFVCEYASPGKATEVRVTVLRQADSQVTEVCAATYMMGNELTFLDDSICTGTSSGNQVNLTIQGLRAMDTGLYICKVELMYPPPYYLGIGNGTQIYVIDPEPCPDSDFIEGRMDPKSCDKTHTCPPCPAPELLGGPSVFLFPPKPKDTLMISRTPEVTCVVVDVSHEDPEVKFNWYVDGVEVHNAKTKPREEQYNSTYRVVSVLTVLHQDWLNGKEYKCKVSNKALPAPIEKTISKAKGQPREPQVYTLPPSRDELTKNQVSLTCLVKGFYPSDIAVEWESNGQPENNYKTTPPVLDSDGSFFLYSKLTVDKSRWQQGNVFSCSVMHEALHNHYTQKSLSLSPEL
Description: CA-170 was evaluated for its potential impact on B7.1 mediated immune-inhibitory interaction with CTLA4 by monitoring the rescue of release of IL-2 in the presence of recombinant CTLA4-Ig and B7.1 in T cells stimulated with phytohemagglutinin (PHA). Briefly, Jurkat T cells (0.25 × 10^5 cells/well of a 96-well plate) grown and starved in serum-free RPMI1640 media for 2 h were stimulated with PHA (10 µg/mL) and B7.1 (500 ng/mL) in the presence of recombinant human CTLA4-Ig (200 ng/mL) and different concentrations of CA-170 and cultured for 48 h at 37 °C. After 48 h of cell culture, supernatant was analyzed for IL-2 by ELISA. Anti-CTLA4 antibody and isotypes were used as controls.

MC38 colon carcinoma = assay: Antitumor efficacy in MC38 syngeneic model (C57B6); format: in vivo, mouse; conditions: MC38 in C57B6 mice, day 14 of dosing
Description: For MC38 syngeneic colon carcinoma subcutaneous model, 0.5 × 10^6 MC38 cells (Source: NCI/NIH, kind gift from Dr. Michael Pollack) were injected subcutaneously to the left flank of the C57B6 mouse (In-house) or SCID Beige mice (Source: Harlan, France) on day 1 and dosing was initiated when average tumor volume reached ~100 mm^3. Animals were randomized based on tumor volumes and treated with either a vehicle control or CA-170 at indicated doses for 14 days. Anti-PD1 antibody (Clone J43 from BioXcel) was dosed intraperitoneally at 100 µg/animal once every week. Treatment efficacy was assessed in terms of the effects of the test substances on the tumor volumes of treated mice relative to vehicle-treated mice. Tumor growth curves of test and control groups using the mean tumor volumes were drawn, percent tumor growth inhibition (%TGI) […].

[1] = Tolerability in the in vivo pharmacological studies (body weights, clinical signs); conditions: all in vivo pharmacological studies
CT26 tumor model = assay: Tumor-infiltrating Tregs and CD8/FoxP3 ratio in CT26 model; format: in vivo, mouse
From the text: Supplementary Figure 2: Effect of CA-170 alone and in combination with CTX on CD8/FoxP3 […]
administration of CA-170 in CT26 tumor model, as observed by the measuring CD4+CD25+FoxP3+ cells. However, an increase in the number of infiltrating CD8+ T cells increased in CA-170 + CTX treated group, led to a favourable increase in the ratio of CD8+T cells […]
(1 picture or pasted object on this page, not shown here)

[2] = test system: Dopamine D1, D2S, D3, D44, D5; assay: CEREP 80 panel binding: Dopamine; conditions: 10 µM
Description: (§1) CEREP 80 panel assay was carried out by Eurofins Cerep Panlabs facility at France. A series of binding assays was carried out to understand the off-target toxicity of CA-170. CA-170 was tested at 10 μM test concentration in duplicates. Compound binding was calculated as a % inhibition of the binding of a radioactively labeled ligand specific for each target. In each experiment the respective reference compound was tested concurrently with CA-170, and the data were compared with historical values determined at Eurofins. The experiment was accepted in accordance with Eurofins validation standard operating procedure. The results are expressed as a percent of control specific binding; (measured specific binding / control specific binding) × 100 and as a percent inhibition of control specific binding; 100−(measured specific binding / control specific binding) × 100 obtained in the presence of CA-170. The IC50 values (concentration causing a half-maximal inhibition of control specific binding) and Hill coefficients (nH) were determined by non-linear regression analysis of the competition curves generated with mean replicate values using Hill equation curve fitting.

Cl-Channel = assay: CEREP 80 panel binding: Cl-Channel; conditions: 10 µM
Description: as §1

Melatonin MT1 = target: T3, Melatonin MT1 (Homo sapiens, UniProt P48039); assay: CEREP 80 panel binding: Melatonin; conditions: read-out: % Inhibition of Control Specific Binding
T3 construct: Eurofins Cerep Panlabs (contract assay)
T3 sequence (P48039 whole entry): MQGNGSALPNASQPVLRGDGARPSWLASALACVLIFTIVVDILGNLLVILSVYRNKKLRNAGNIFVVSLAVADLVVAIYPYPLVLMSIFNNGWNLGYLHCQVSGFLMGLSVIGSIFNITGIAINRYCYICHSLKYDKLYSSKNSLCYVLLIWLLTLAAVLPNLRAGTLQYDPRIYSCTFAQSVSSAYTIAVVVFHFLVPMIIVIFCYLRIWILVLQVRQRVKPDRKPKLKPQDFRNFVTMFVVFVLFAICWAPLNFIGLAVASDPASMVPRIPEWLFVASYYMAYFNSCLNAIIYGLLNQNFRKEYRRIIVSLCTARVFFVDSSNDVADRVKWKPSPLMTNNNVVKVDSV
Description: as §1

PDGF = assay: CEREP 80 panel binding: Growth factors; conditions: 10 µM
Description: as §1

Sigma = assay: CEREP 80 panel binding: Sigma; conditions: 10 µM
Description: as §1

Angiotensin -II AT1, AT2 = assay: CEREP 80 panel binding: Angiotensin-II; conditions: 10 µM
Description: as §1

Bradykinin B2 = target: T4, Bradykinin B2 (Homo sapiens, UniProt P30411); assay: CEREP 80 panel binding: Bradykinin; conditions: read-out: % Inhibition of Control Specific Binding
T4 construct: Eurofins Cerep Panlabs (contract assay)
T4 sequence (P30411 whole entry): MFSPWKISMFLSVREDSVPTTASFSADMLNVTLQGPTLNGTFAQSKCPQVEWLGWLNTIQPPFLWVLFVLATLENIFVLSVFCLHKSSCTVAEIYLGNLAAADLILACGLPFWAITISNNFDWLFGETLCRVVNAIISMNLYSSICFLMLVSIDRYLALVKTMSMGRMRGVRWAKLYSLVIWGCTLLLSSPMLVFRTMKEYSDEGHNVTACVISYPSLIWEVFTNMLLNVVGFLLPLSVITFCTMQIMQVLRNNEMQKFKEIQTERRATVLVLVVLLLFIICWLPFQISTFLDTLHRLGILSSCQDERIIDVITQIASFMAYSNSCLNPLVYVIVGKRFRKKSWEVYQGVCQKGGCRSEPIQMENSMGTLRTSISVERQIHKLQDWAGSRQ
Description: as §1

Chemokines CCR1, CXCR2 = assay: CEREP 80 panel binding: Chemokines; conditions: 10 µM
Description: as §1

Endothelin ETA, ETB = assay: CEREP 80 panel binding: Endothelin; conditions: 10 µM
Description: as §1

NFAT reporter = test system: NFAT reporter; design: method as in PMID 31374878; conditions: cited from earlier work
[3] = test system: Classical Hodgkin lymphoma; design: method as in doi:10.1093/annonc/mdz253.035; conditions: Phase 2, Lugano criteria; cited from earlier work
PD-L1 = PD-L1 (Homo sapiens, UniProt Q9NZQ7); assay: SPR and solution NMR using recombinant extracellular domains; format: binding; design: SPR and solution NMR using recombinant proteins containing extracellular domains; host or cells: E. coli (said of the solution NMR studies); conditions: recombinant proteins containing extracellular domains
Chain of PD-L1 (Q9NZQ7 19-238 limits assumed, species assumed): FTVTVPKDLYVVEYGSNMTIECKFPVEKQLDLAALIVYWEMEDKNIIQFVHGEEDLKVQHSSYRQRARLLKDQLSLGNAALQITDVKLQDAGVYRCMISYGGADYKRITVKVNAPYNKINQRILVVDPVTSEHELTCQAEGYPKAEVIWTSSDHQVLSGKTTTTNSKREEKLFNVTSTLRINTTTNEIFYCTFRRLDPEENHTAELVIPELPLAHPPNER

Description for Plasma stability, human: Test compounds were tested for plasma stability (test concentration of 10 μM) as per the protocols reported in publication[20].

C[C@@H](O)[C@H](NC(=O)N[C@@H](CC(N)=O)c1nc([C@@H](N)CO)no1)C(=O)O [CA-170]
EC50 (PD-L2): 51.5 nM
IL2 (CTLA4; 10 nM): 100.732 pg/mL and 119.610 pg/mL and 100.195 pg/mL
IL2 (CTLA4; 100 nM): 131.122 pg/mL and 123.634 pg/mL and 97.951 pg/mL
IL2 (CTLA4; 1000 nM): 139.927 pg/mL and 131.366 pg/mL and 108.171 pg/mL
rescue of IL-2 release inhibited by recombinant hCTLA-4 (in words) (CTLA4; Jurkat cells stimulated with PHA + human B7-1): did not rescue the release of IL-2
Individual tumor volumes (MC38 colon carcinoma; CA-170 10 mg/kg PO daily, J43 100 µg/animal/week, 10 mg/kg): 391.77 mm3 and 388.53 mm3 and 554.94 mm3 and 536.22 mm3 and 252.8 mm3 and 593.87 mm3 and 294.73 mm3 and 377.95 mm3 and 460.46 mm3 and 205.38 mm3
tumor growth inhibition (MC38 colon carcinoma; CA-170 10 mg/kg/day orally, PD-1 antibody 100 µg/animal/week): 43%
tolerability (body weights, clinical signs; in words) [1]: well tolerated
levels of tumor-infiltrating Tregs (CD4+CD25+FoxP3+ cells; in words) (CT26 tumor model; CA-170): No significant change
ratio of CD8+T cells to Tregs (in words) (CT26 tumor model; CA-170 + CTX): increased significantly
% Inhibition of Control Specific Binding [2]: ≤ 14%
% Inhibition of Control Specific Binding (Cl-Channel): 2%
inhibition at 10 µM (Melatonin MT1): 5%
% Inhibition of Control Specific Binding (PDGF): 6%
% Inhibition of Control Specific Binding (Sigma): 20%
% Inhibition of Control Specific Binding (Angiotensin -II AT1, AT2): ≤ 5%
inhibition at 10 µM (Bradykinin B2): < 0%
% Inhibition of Control Specific Binding (Chemokines CCR1, CXCR2): 1%
% Inhibition of Control Specific Binding (Endothelin ETA, ETB): ≤ 9%
activity in NFAT-reporter-based assay (in words) (NFAT reporter): no activity
ORR [3]: 30%
remaining at 4 h, 10 μM (Plasma stability, human): > 95%
binding to PD-L1 by SPR and solution NMR (in words) (PD-L1): a definitive binding could not be established; also recorded: lack of binding
